From PubChem BioAssay (NCI)
Values joined by “and” are separate entries in the source; they are usually repeats but may differ in a detail not shown here. Equal entries are not always repeated.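 In this assay, cells in 96-well plates receive the compound at five concentrations for 48 hours. Endpoints are linearly interpolated between the surrounding concentrations. Here, GI50 denotes the concentration required for 50% inhibition of growth. TGI: concentration producing complete growth inhibition.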

Legend:
Assay in all cases: NCI tumour cell line growth inhibition, 48 h
UACC-62 melanoma = test system: UACC-62 melanoma
LOX IMVI melanoma = test system: LOX IMVI melanoma
SK-MEL-5 melanoma = test system: SK-MEL-5 melanoma
ACHN renal = test system: ACHN renal
NCI/ADR-RES ovarian = test system: NCI/ADR-RES ovarian
CAKI-1 renal = test system: CAKI-1 renal
SN12C renal = test system: SN12C renal
SF-295 CNS = test system: SF-295 CNS
OVCAR-4 ovarian = test system: OVCAR-4 ovarian
RPMI-8226 leukemia = test system: RPMI-8226 leukemia

| Structure (SMILES) | TGI (UACC-62 melanoma) [µM] | TGI (LOX IMVI melanoma) | TGI (SK-MEL-5 melanoma) | TGI (ACHN renal) | TGI (NCI/ADR-RES ovarian) | TGI (CAKI-1 renal) [µM] | TGI (SN12C renal) | TGI (SF-295 CNS) [µM] | TGI (OVCAR-4 ovarian) [µM] | TGI (RPMI-8226 leukemia) [µM] | GI50 (NCI/ADR-RES ovarian) | GI50 (LOX IMVI melanoma) [µM] | GI50 (ACHN renal) | GI50 (OVCAR-4 ovarian) [µM] | GI50 (CAKI-1 renal) [µM] | GI50 (SN12C renal) [µM] | GI50 (SF-295 CNS) [µM] |
| --- | --- | --- | --- | --- | --- | --- | --- | --- | --- | --- | --- | --- | --- | --- | --- | --- | --- |
| O=C(NN1C(=O)/C(=C/c2ccc(Cl)cc2)N=C1c1ccccc1)c1c(Cl)c(Cl)c(Cl)c(Cl)c1-c1nc2ccccc2[nH]1 | 30.9 | 62.8 µM | > 100 µM | 75.3 µM | 42.2 µM | 78.8 | 86.4 µM | > 100 | – | – | – | – | – | – | – | – | – |
| COc1ccc(OC)c2sc(N3C(=O)/C(=C/c4ccccc4S)N=C3c3ccccc3)nc12 | 52.2 | 60.4 µM | 40.6 µM | > 100 µM | > 100 µM | > 100 | 81.9 µM | > 100 | > 100 | 58.4 | – | – | – | – | – | – | – |
| CC(=O)OCCC[C@@H]1C(=C(C)C)CCC2[C@@]1(C)CC[C@@]1(C)C[C@](C)(CCC=C(C)C)CC[C@]21C (some centres not stated) | > 100 | – | > 100 µM | > 100 µM | > 100 µM | > 100 | > 100 µM | > 100 | > 100 | > 100 | – | – | – | – | – | – | – |
| O=C1c2scnc2-c2nccc3c2c1nc1ccccc13 | 1.45 | 0.508 µM | – | 2.15 µM | > 100 µM | 3.83 | 4.23 µM | 3.6 | 2.92 | > 100 | – | – | – | – | – | – | – |
| CC(=O)C1=C(O)C2(O)C(=O)c3c(c(C)c4ccc(C)c(O)c4c3O)CC2C(N)C1=O (configuration not stated) | 5.25 | 11.4 µM | 3.85 µM | 7.19 µM | 13.7 µM | 7.99 | 9.79 µM | 5.6 | 19 | 12.8 | 1.89 µM | – | – | – | – | – | – |
| CCCCC1Cc2cc(OC)ccc2-c2nc3cc(OC)ccc3n21 (configuration not stated) (tested in a mixture with another compound) | 25.5 | 30 µM | 27.4 µM | 28.4 µM | 26.4 µM | 38.8 | 27.9 µM | – | 18.9 | 24.4 | – | – | – | – | – | – | – |
| Cc1c(N)nc([C@H](CC(N)=O)NC[C@H](N)C(N)=O)nc1C(=O)N[C@H](C(=O)N[C@H](C)[C@@H](O)[C@H](C)C(=O)N[C@H](C(=O)NCCc1nc(-c2nc(C(=O)NCCC[S+](C)C)cs2)cs1)[C@@H](C)O)C(OC1OC(CO)C(O)C(O)C1OC1OC(CO)C(O)C(OC(N)=O)C1O)c1cnc[nH]1 (some centres not stated) | – | 5.32 µM and 1.89 µM and 1.51 µM | 16.9 µM [middle of 4 runs] | 0.343 µM and 0.34 µM and 1.03 µM | 12.8 µM and 4.87 µM and 5.61 µM | – | 13.2 µM [middle of 4 runs] | – | – | – | 1.21 µM and 1.09 µM | 0.0661 | 0.0135 µM and 0.0134 µM | – | – | – | – |
| COC1CCC(OS(C)(=O)=O)CO1 (configuration not stated) | > 100 | – | – | > 100 µM | – | – | – | > 100 | > 100 | 98.2 | – | – | – | – | – | – | – |
| O=C(O)C(Cc1ccccc1)N1C(=O)c2ccccc2C1=O (configuration not stated) | > 100 | > 100 µM | > 100 µM | > 100 µM | > 100 µM | > 100 | > 100 µM | > 100 | > 100 | > 100 | – | – | – | – | – | – | – |
| CN1CCC23c4ccccc4NC1C21CCN(C)C3Nc2ccccc21 | > 375 | > 375 µM | > 174 µM | – | > 375 µM | > 164 | > 375 µM | > 375 | > 375 | > 182 | – | – | – | – | – | – | – |
| C[N+]1(C)C2CCC1CC(OC(=O)C(CO)c1ccccc1)C2 (configuration not stated) | > 100 | > 100 µM | > 100 µM | > 100 µM | > 100 µM | > 100 | > 100 µM | > 100 | > 100 | > 100 | – | – | – | – | – | – | – |
| O=C1CCC(NC(=O)Cc2ccc(O)cc2)C(=O)N1 (configuration not stated) | > 2500 | > 2500 µM | > 2500 µM | > 2500 µM | – | > 2500 | > 2500 µM | > 2500 | > 2500 | – | – | – | – | – | – | – | – |
| CN1CCN(CCCOc2ccc3ncnc(Nc4ccc(Oc5cccc(C(F)(F)F)c5)c(Cl)c4)c3c2)CC1 | – | 2.81 µM | – | 2.55 µM | 8.62 µM | 3.07 | 2.57 µM | 3.13 | 5.04 | – | 2.4 µM | 1.3 | 1.26 µM | 1.76 | 1.31 | 1.26 | 1.66 |
| Cc1c(Cl)c(=O)oc2cc(OCC(=O)c3ccccc3)ccc12 | > 100 | – | > 100 µM | > 100 µM | > 100 µM | > 100 | > 100 µM | > 100 | > 100 | – | – | – | – | – | – | – | – |
| N=C(N)C(N=Nc1ccccc1)C(=N)N (configuration not stated) | > 100 | > 100 µM | > 100 µM | > 100 µM | > 100 µM | > 100 | > 100 µM | > 100 | > 100 | > 100 | – | – | – | – | – | – | – |
| Cc1nc(Cl)c(C)c(Cl)n1 | > 100 | > 100 µM | > 100 µM | > 100 µM | > 100 µM | 0.0695 | > 100 µM | > 100 | > 100 | > 100 | – | – | – | – | – | – | – |
| CCN(CC)/C(=C\Cl)Nc1ccccn1 | > 100 | > 100 µM | > 100 µM | > 100 µM | – | > 100 | > 100 µM | > 100 | > 100 | > 100 | – | – | – | – | – | – | – |
| CO[C@@]12C[C@@H](CNC(=O)c3cc(Br)c[nH]3)O[C@@H]1NC(=O)N2 | > 100 | > 100 µM | > 100 µM | > 100 µM | > 100 µM | > 100 | > 100 µM | > 100 | > 100 | > 100 | – | – | – | – | – | – | – |
